Data set [1] deals with SW48 cells. Kind of data set: Cell cycle arrest by PI flow cytometry. It counts as cell-based, human. As to the method:
(§1) A PI/RNase staining assay (BD Bioscience™) was performed to reveal the presence of cell cycle arrest and apoptotic cells after treatment with GNTbm compounds, Chidamide and Entinostat. […] After treatment cells were harvested, fixed with 80% ethanol for 24 h, washed with 1×PBS and stained with PI/RNase for 15 min at room temperature. The cells were then analyzed using Flow Cytometer within 1 h.
On the technique in general: A flow cytometer gives signals particle by particle.

Data set [2] concerns SW48 cells. Put plainly: Cell apoptosis (sub-G1) by PI flow cytometry. It counts as cell-based, human. The settings on record: 72 h. As to the method:
as §1

Data set [3] can be described thus: Saturation solubility. Type of data set: physicochemical. The following applies: ddH2O, 25° C., 90 minutes; mean ± SD; BDL: Below detection limit. The protocol:
Samples of 5 mg of compounds were added to 5 ml volumetric flasks containing ddH2O and shaken at 100 rpm in an incubator at 25° C. for 90 minutes. The resulting suspension was filtered through a 0.22 μm filter. The concentrations of compounds were determined spectrophotometrically at 256 nm. The saturation solubility of each sample was determined in triplicates and the mean value and standard deviation were reported.

Data set [4] concerns MDA-MB-453. Kind of data set: In vitro cytotoxicity MTT assay. The settings on record: IC50 ± SD. It counts as cell-based, human. The protocol: (§2) Six different cell lines were used, including human breast cancer cell line MDA-MB-231 (6×10^3), MDA-MB-453 (2.4×10^4), SK-BR-3 (6×10^3), human breast epithelial cell line M10 (6×10^3), human gastric carcinoma NCI-N87 (2.4×10^4), and human colorectal adenocarcinoma SW48 (2.4×10^4), and seeded in a 96 well plate. Cell lines were obtained from Bioresource Collection and Research Center, BCRC, Taiwan. […] After 72 h, MTT assay (Cayman™) was used to determine the cellular viability.
Background: Tetrazolium dyes change colour on reduction, which living cells bring about.

The subject of data set [5] is SW48. Kind of data set: In vitro cytotoxicity MTT assay. It counts as cell-based, human. The settings on record: IC50 ± SD. As to the method: as §2
In data set [6] the test system is MDA-MB-231. Put plainly: In vitro cytotoxicity MTT assay. Type of data set: cell-based, human. The settings on record: IC50 ± SD. As to the method: as §2
Data set [7] relates to M10. Put plainly: In vitro cytotoxicity MTT assay. Type of data set: cell-based, human. The following applies: IC50 ± SD. As to the method: as §2
Data set [8] relates to NCI-N87. Put plainly: In vitro cytotoxicity MTT assay. The settings on record: Homo sapiens, 72 h, IC50 ± SD. It counts as cell-based. The protocol:
as §2

Data set [9] relates to SK-BR-3. Kind of data set: In vitro cytotoxicity MTT assay. It counts as cell-based. The settings on record: Homo sapiens, 72 h, IC50 ± SD. As to the method:
as §2

Data set [10] concerns the target HDAC3 (Homo sapiens (Human), UniProt O15379). Put plainly: HDAC3 enzymatic kinetic assay. Type of data set: biochemical. The settings on record: 2 μM; 20 min, 40 min and 60 min. The protocol:
HDAC3 enzymatic kinetic assay was performed according to standard Protocols (Fluorgenic HDAC3 assay kit, BPS Bioscience™). […] After incubation, assay developer was added to the samples and the absorbance was read at fluorogenic wavelength. The relative inhibition to HDAC3 activity in each sample was determined.

Data set [11] has as its system MDA-MB-231 cells. Put plainly: Cell cycle arrest by PI flow cytometry. It counts as cell-based, human. The following applies: MDA-MB-231, 3.125 μM, 72 h. As to the method:
as §1

The subject of data set [12] is M10 cells. Kind of data set: Cell cycle arrest by PI flow cytometry. The following applies: M10, 12.5 μM, 72 h. It counts as cell-based, human. The protocol: as §1
Data set [13] relates to MDA-MB-231 cells. Kind of data set: Cell apoptosis (sub-G1) by PI flow cytometry. Type of data set: cell-based, human. The following applies: MDA-MB-231, 6.25 μM, 72 h. The protocol: as §1
The subject of data set [14] is M10 cells. Kind of data set: Cell apoptosis (sub-G1) by PI flow cytometry. It counts as cell-based, human. The settings on record: M10, 12.5 μM, 72 h. The protocol:
as §1

Data set [15] addresses HDAC11 (Homo sapiens (Human), UniProt Q96DB2). Kind of data set: HDACs 1-11 enzymatic inhibition by BPS Bioscience.
Method: HDAC assay was performed according to standard Protocols (Fluorgenic HDACs 1-11 assay kit, BPS Bioscience™). […] After 0.5 h, assay developer was added to the samples and the absorbance was read at fluorogenic wavelength. The relative inhibition to HDACs 1, 2, 3, 4, 5, 6, 7, 8, 9, and 11 activities was determined in each sample. […] All of the compounds were dissolved in DMSO. The serial dilution of the compounds was first performed in 100% DMSO with the highest concentration at 1 mM. Each intermediate compound dilution (in 100% DMSO) would then get directly diluted 10× fold into assay buffer for an intermediate dilution of 10% DMSO in HDAC assay buffer and 5 μl of the dilution was added to a 50 μl reaction so that the final concentration of DMSO is 1% in all of the reactions. The enzymatic reactions for the HDAC enzymes were conducted in duplicate at 37° C. for 30 minutes in a 50 μl mixture containing HDAC assay buffer, 5 μg BSA, an HDAC substrate, a HDAC enzyme and a test compound. After enzymatic reactions, 50 μl of 2×HDAC Developer was added to each well for the HDAC enzymes and the plate was incubated at room temperature for an additional 15 minutes. Fluorescence intensity was measured at an excitation of 360 nm and an emission of 460 nm using a Tecan Infinite M1000 microplate reader. HDAC activity assays were performed in duplicate at each concentration. The fluorescent intensity data were analyzed using the computer software, Graphpad Prism. In the absence of the compound, the fluorescent intensity (Ft) in each data set was defined as 100% activity. In the absence of HDAC, the fluorescent intensity (Fb) in each data set was defined as 0% activity. The percent activity in the presence of each compound was calculated according to the following equation: % activity=(F−Fb)/(Ft−Fb), where F=the fluorescent intensity in the presence of the compound. The values of % activity versus a series of compound concentrations were then plotted using non-linear regression analysis of Sigmoidal dose-response curve generated with the equation Y=B+(T−B)/1+10((Log EC50−X)×Hill Slope), where Y=percent activity, B=minimum percent activity, T=maximum percent activity, X=logarithm of compound and Hill Slope=slope factor or Hill coefficient. The IC50 value was determined by the concentration causing a half-maximal percent activity.
The test system of data set [16] is histone H3 acetylation (AcH3) in MDA-MB-231 cells. Kind of data set: Western blot of histone H3 acetylation. It counts as cell-based, human. The settings on record: MDA-MB-231, 1.0 μM, 24 h. As to the method: Human breast cancer MDA-MB-231 cells and human colorectal adenocarcinoma SW48 cells were analyzed. MDA-MB-231 and SW48 were obtained from Bioresource Collection and Research Center (BCRC, Taiwan). MDA-MB-231 and SW48 were grown at 37° C. under humidified air supplemented without CO2 in Leibovitz's L-15 (cat. #11415114, Thermo Fisher Scientific) containing 10% heat inactivated fetal calf serum (Thermo Scientific), 1× concentration of MycoZap antibiotics (cat. #VZA-2011, Lonza). Cells were treated with GNTbm compounds series, Chidamide or Entinostat for different time periods or at varied doses. Cells were treated with indicated doses for 24 h or cells were treated with indicated doses for different time periods. Cell pellets were dissolved with RIPA buffer (cat. #20-188, Merck) with protease and phosphatase inhibitors (cat. #K272, BioVision) and clarified by centrifugation. Equal amounts of total protein were resolved by SDS-PAGE and transferred to polyvinylidene fluoride membranes (cat. #1620177, BIO-RAD). Blots were incubated with primary antibodies against β-actin (cat. #sc-47778, Santa Cruz Biotechnology), Histone 3ac (cat. #61637, Active Motif), and HRP secondary antibodies anti-rabbit (ab6721, Abcam) and anti-mouse (sc-2005, Santa Cruz). Blots were developed using the ECL Western Blotting Substrate (cat. #sc-2048, Santa Cruz Biotechnology) Image blots were analyzed with the iBright FL1000 (Thermo Fisher Scientific) imaging systems.

For data set [17], the system named is CT26 tumor. Kind of data set: Anti-cancer activity in CT26 tumor-bearing BALB/c mice. The following applies: for ORR (%): k-30 compounds 50 mg/kg, Regorafenib 30 mg/kg po daily; for ORR (%) / CR / PD / PR: first tumor assessment; for CR / PD / PR / CR^& / PD^& / PR^& / SD^&: number of mice; for ORR (%)^& / CR^& / PD^& / PR^& / SD^&: second tumor assessment on day 40. Type of data set: in vivo. The protocol:
Six- to eight-week-old male BALB/c mice (National Laboratory Animal Center, Taiwan) were used in each treatment group for all animal experiments. […] CT26 cell line was purchased from ATCC. CT26 tumor cells were grown in McCoy's 5A supplemented with 10% (vol/vol) FBS at 37° C., 5% CO2. […] Tumors were allowed to grow for 8-11 days (tumor size about 150-250 mm^3) before randomization and treatment. Animals were euthanized when tumors reached more than 3000 mm^3 […]. CT26-bearing mice were given 2.5 mg/kg of anti-IgG (cat. #BE0089, Lot #716719J3, Bio X Cell) and anti-PD-1 (cat. #BE0146, Lot #735019J3, Bio X Cell) antibody by i.p. administration on days 8, 11, 14, 17, 20 and 23 post tumor implantation, and all antibodies were diluted to appropriate concentrations in 100 μL of sterile PBS (pH 7.4) (Invitrogen Life Technologies). […] The anti-cancer activity was measured from the start of the treatment until the tumor volume reached 3,000 mm^3. Tumor volume was calculated as length×width^2×0.5.
The BALB/c mice bearing murine CT26 colon tumors were treated with various therapeutic modalities as indicated. […] CT26 tumor-bearing mice were euthanized when tumor volume reached 3000 mm^3 after tumor implantation. […] After 16 days of treatment, we continued to monitor the tumor size up to day 60. When tumor growth reappeared and tumor size reached at least 5 fold in mice with CR or PR response after first tumor assessment, it was defined as relapse/recurrence. […] Furthermore, we also investigate epigenetic immunomodulatory properties in series of GNTbm compounds including GNTbm-05/k-30, GNTbm-11/k-30, GNTbm-38/k-30 and GNTbm-39/k-30.

Data set [18] has as its system CT26 cells. Kind of data set: Tumor rechallenge study (immune memory) in tumor-bearing mice. Type of data set: in vivo. The settings on record: Exp 1; mice resistant to CT26 re-challenge.
Method: All mice with PR/CR response after treatment went rechallenged with CT26 cells on the contralateral side (please see Table 6). The rechallenge with CT26 was performed on day 33, which was 7 days (day 33) after first tumor assessment (day 26), with injection of 5×10^6 CT26 cells to the right flank of each mouse. After rechallenge with CT26 cells, the tumor was allowed to grow for another 7 days (day 40) to determine the baseline as 1 fold. After a further 10 days (day 50), the tumor growth was evaluated for the rechallenge. If both of the following criteria are met, the response will be considered as relapse: first, the tumor size over 2 folds when compared to that of baseline; second, the tumor volume at day 50 was over 300 mm^3. Relapse happens when immune memory activity is not sufficiently activated. If the tumor growth is inhibited, it means the immune memory is activated.
The mice were treated with different regimens for 16 days, and then the first tumor assessment was performed (day 26). […] Then rechallenge was performed with the same kind of cancer cells (CT26; 5×10^6) inoculated on the opposite flank for about another 7 days (day 40), and then the tumor volume would be determined as baseline (1 fold). The rechallenge tumor was allowed to grow for 10 days (day 50), and then the tumor size was measured to evaluate the immune memory as positive or negative. […]
The subject of data set [19] is CT26 tumor. Kind of data set: Survival rate in CT26 tumor-bearing mice. Type of data set: in vivo. The settings on record: Exp 1. As to the method: The administration of antibody or drugs was performed for 16 days from day 8 to day 23. The tumor continued to grow in the tumor-bearing mice. The tumor volume of the mice was measured once every three or four days (twice/week). The tumor-bearing mice were regarded as dead when the tumor volume reached 3,000 mm^3. All treatment groups were recorded and analyzed.

Usually IC50 stands for the concentration needed to halve the response being measured. Higher therefore signals weaker potency in that assay.

The structures appear in SMILES notation.

HDAC11, sequence (Q96DB2 whole entry): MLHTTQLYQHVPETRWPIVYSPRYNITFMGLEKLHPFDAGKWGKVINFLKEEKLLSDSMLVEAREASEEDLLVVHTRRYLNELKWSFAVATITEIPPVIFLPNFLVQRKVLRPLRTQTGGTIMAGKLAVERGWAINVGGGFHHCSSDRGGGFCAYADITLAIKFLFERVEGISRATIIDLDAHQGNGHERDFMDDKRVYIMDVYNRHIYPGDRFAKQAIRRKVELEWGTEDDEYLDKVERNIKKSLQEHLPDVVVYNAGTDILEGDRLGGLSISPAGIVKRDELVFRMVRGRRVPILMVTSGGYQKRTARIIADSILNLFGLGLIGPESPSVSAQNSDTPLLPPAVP
HDAC3, sequence (O15379 whole entry): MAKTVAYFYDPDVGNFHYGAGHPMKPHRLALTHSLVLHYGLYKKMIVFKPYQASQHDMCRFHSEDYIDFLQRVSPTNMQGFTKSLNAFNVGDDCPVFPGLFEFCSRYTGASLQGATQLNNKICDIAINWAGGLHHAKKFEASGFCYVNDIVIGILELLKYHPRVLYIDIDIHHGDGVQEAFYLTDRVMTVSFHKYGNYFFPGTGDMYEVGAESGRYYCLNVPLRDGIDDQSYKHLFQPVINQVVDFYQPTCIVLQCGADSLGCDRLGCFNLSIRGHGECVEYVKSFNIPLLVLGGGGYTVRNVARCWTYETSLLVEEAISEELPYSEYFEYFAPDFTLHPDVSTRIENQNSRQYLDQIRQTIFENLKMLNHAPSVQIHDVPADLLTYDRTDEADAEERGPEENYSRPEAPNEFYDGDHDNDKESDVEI
HDAC3, sequence (Q9Y618 395-489 partner): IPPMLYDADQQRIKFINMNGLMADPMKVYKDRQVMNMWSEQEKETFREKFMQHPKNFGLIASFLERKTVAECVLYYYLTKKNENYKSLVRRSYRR

Consider `Nc1cc(F)ccc1NC(=O)c1ccc(CNC(=O)/C=C/c2cccnc2)cc1` [Chidamide, reference compound], for which the “Percentage of Cell Cycle Distribution G0/G1” value is 65.7% in data set [1] (SW48, 0.3125 μM, 72 h); 68.1% in [1] (SW48, 0.625 μM, 72 h); 70.6% in data set [1] (SW48, 1.25 μM, 72 h); 79.9% in data set [1] (SW48, 5 μM, 72 h). The “Percentage of Cell Cycle Distribution G2/M” value was found to be 16.7% in [1] (SW48, 0.3125 μM, 72 h); 17.5% in [1] (SW48, 0.625 μM, 72 h); 15.3% in [1] (SW48, 1.25 μM, 72 h); 11.6% in data set [1] (SW48, 5 μM, 72 h). Besides, the “Percentage of Cell Cycle Distribution S” value in data set [1] (SW48, 0.3125 μM, 72 h) is 17.6%; in [1] (SW48, 0.625 μM, 72 h), 14.4%; in data set [1] (SW48, 1.25 μM, 72 h), 14.1%; in data set [1] (SW48, 5 μM, 72 h), 8.5%. In data set [1] (SW48, doses of Table 12), the Cell cycle arrest result is “induced cell cycle arrest in the G0/G1 phase”. Further, the “Percentages of Cell Apoptosis” value came to 9.0% in [2] (SW48, 0.3125 μM); 10.2% in data set [2] (SW48, 0.625 μM); 15.1% in data set [2] (SW48, 1.25 μM); 35.4% in data set [2] (SW48, 5 μM). In addition, in [3], the “Saturation Solubility” value is given as “BDL”. For the same compound, the half-maximal inhibitory concentration (IC50) was found to be 1.36 ± 0.12 µM in [4] (72 h); 1.77 ± 0.02 µM in [4] (Homo sapiens, MDA-MB-453, 72 h); 5.43 ± 1.06 µM in data set [5] (72 h); 17.4 ± 1.98 µM in [6] (72 h); 25.6 ± 3.05 µM in data set [6] (Homo sapiens, MDA-MB-231, 72 h); 4.94 ± 0.87 µM in data set [7] (72 h). In addition, the 50% inhibitory concentration (IC50) in [7] (Homo sapiens, M10, 72 h) stood at 2.72 ± 2.6 µM; in data set [8], 3.09 ± 0.2 µM; in data set [9], 3.24 ± 0.98 µM. Further, the “Inhibition of HDAC 3 enzyme activities (kinetics)” value in data set [10] is “stronger inhibition of HDAC 3 enzyme activities than Entinostat”.
For `Nc1ccccc1NC(=O)c1ccc(CNC(=O)OCc2cccnc2)cc1` [Entinostat, reference compound], the Cell cycle arrest entry is recorded as “significantly induced cell cycle arrest in G0/G1 phase” in data set [11]; “significantly induced cell cycle arrest of M10 cells in the G2/M phase” in [12]; “significantly induced cell cycle arrest in G0/G1 phase” in data set [1] (SW48, 3.125 μM, 72 h). In data set [12], the “Cells in G2/M phase” value came to 20.2%. The “Cells in G0/G1 phase” value in data set [1] (SW48, 3.125 μM, 72 h) was 72.1%. For the same compound, the “Induction of apoptosis (sub-G1 phase)” value in [13] was “significantly induced apoptosis”; in data set [14], “significantly induced apoptosis in M10 cells”; in data set [2] (SW48, 6.25 μM) it was “significantly induced apoptosis”. Besides, the IC50 in data set [15] was > 10 µM; in [4] (Homo sapiens, MDA-MB-453, 72 h), 1.82 ± 0.024 µM; in data set [5] (Homo sapiens, SW48, 72 h), 5.21 ± 0.37 µM; in [6] (Homo sapiens, MDA-MB-231, 72 h), 13.2 ± 1.34 µM; in data set [7] (Homo sapiens, M10, 72 h), 4.34 ± 0.01 µM; in data set [9] it was 1.94 ± 0.1 µM. Further, the “Level of histone H3 acetylation” value in data set [16] was “significantly increased the level of histone H3 acetylation”.
Turning to `CNC(=O)c1cc(Oc2ccc(NC(=O)Nc3ccc(Cl)c(C(F)(F)F)c3)c(F)c2)ccn1` [Regorafenib], in data set [17] (Exp 1, initial tumor volume 245 mm3, strict criteria (PR ≤1 times)), the “ORR (%)” value amounted to 11%. In [17] (Exp 1), the CR was 1, the PD is given as 1, the PR is 0 and the “ORR (%)^&” value stood at 22%. In addition, in [17] (Exp 1), the “CR^&” value is 2, the “PD^&” value is listed as 5, the “PR^&” value is recorded as 0 and the “SD^&” value is given as 2. Besides, in data set [17] (Exp 1, tumor growth at least 5 fold in mice with CR or PR after first assessment, monitored up to day 60), the “Relapse (recurrence)” value was 0% (0/1). Also, the “ORR (%)” value in data set [17] (Exp 2, initial tumor volume 192 mm3) is 0%. Further, in data set [17] (Exp 2), the CR is reported as 0, the PD is given as 8, the PR was 0 and the “ORR (%)^&” value stood at 0%. In addition, in data set [17] (Exp 2), the “CR^&” value amounted to 0, the “PD^&” value was 9, the “PR^&” value was 0 and the “SD^&” value came out at 0. In addition, the “Immunity (rechallenge)” value in [18] is 100% (1/1). Besides, in [19], the “Survival rate (%)” value came to 11%.

For the origin of these results see patent US11672788B2, “Histone deacetylase inhibitors for immunomodulation in tumor microenvironment” (GREAT NOVEL THERAPEUTICS BIOTECH & MEDICALS CORPORATION, priority 2020, dated 2023).
